Test results reported in patent publication US8673929B2, “4,6-di- and 2,4,6-trisubstituted quinazoline derivatives and pharmaceutical compositions useful for treating viral infections” (priority 2006, dated 2014).

How the values were obtained:
HCV replicon = experiment: Anti-HCV replicon assay, EC50 (luciferase readout); assay type: cell-based; conditions: Huh-7 HCV replicon cells, 3 days incubation, luciferase luminescence
How it was run: (§1)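 Huh-7 cells harbouring an HCV replicon (6000/well) incubated 3 days at 37° C with 3-fold serially diluted compound (0.5% DMSO final where used). EC50 from luciferase luminescence of lysed cells; CC50 from CellTiter-Glo luminescence in parallel plates.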

Huh-7 HCV replicon cells = experiment: CC50 assay in the anti-HCV replicon assay (CellTiter-Glo); assay type: cell-based, human; conditions: 3 days incubation, CellTiter-Glo luminescence
How it was run: as §1

[1] = as above; assay type: cell-based, human; conditions: human, Huh-7 hepatoma cells harbouring an HCV replicon; Huh-7 HCV replicon cells, 3 days incubation, CellTiter-Glo luminescence
How it was run: as §1

Molecule	EC50 (HCV replicon) [µM]	CC50 (Huh-7 HCV replicon cells) [µM]	EC50 (HCV replicon; Hepatitis C virus, 72 h) [µM]	CC50 at 3 days [1] [µM]
CONC(=O)c1ccc(-c2ccc3nc(N)nc(OCC4CC4)c3c2)cc1 [Example 136]	0.3 to 1	10 to 20		
CCOc1nc(N)nc2ccc(-c3ccc(C(=O)N4CCCCC4)cc3)cc12 [Example 148, [4-(2-amino-4-ethoxy-quinazolin-6-yl)-pheny]-piperidin-1-yl-methanone]	1 to 10	> 20		
CN(C)CCCOc1nc(N)nc2ccc(-c3ccc(C(F)(F)F)cc3C(F)(F)F)cc12 [Example 226, 6-(2,4-bis-trifluoromethyl-phenyl)-4-(3-dimethyl-aminopropoxy)-quinazolin-2-ylamine]	1 to 10	> 20		
CN(C)CCCOc1nc(N)nc2ccc(-c3ccc(F)c(Cl)c3)cc12 [Example 228, 6-(3-Chloro-4-fluoro-phenyl)-4-(3-dimethyl-aminopropoxy)-quinazolin-2-ylamine]	1 to 10	> 20		
CCOc1ncnc2ccc(-c3cn[nH]c3)cc12 [Example 247, 4-ethoxy-6-(1H-pyrazo-4-yl)-quinazoline]	0.3 to 1	> 20		
CCOc1nc(NCc2ccc(S(N)(=O)=O)cc2)nc2ccc(-c3cccc(S(N)(=O)=O)c3)cc12 [Example 252, 4-{[6-(3-aminosulfonyl-phenyl)-4-ethoxy-quinazolin-2-ylamino]-methyl}-benzenesulfonamide]			< 0.3	< 10
CCOc1nc(NCc2ccc(S(N)(=O)=O)cc2)nc2ccc(-c3ccc(NC(=O)N4CCCC4)cc3)cc12 [Example 253, pyrrolidine-1-carboxylic acid {4-[4-ethoxy-2-(4-sulfamoyl-benzylamino)-quinazolin-6-yl]-phenyl}-amide]			< 0.3	10 to 20
CCOc1nc(NCc2ccc(S(N)(=O)=O)cc2)nc2ccc(-c3ccc(NC(N)=O)cc3)cc12 [Example 254, 4-{[4-ethoxy-6-(4-ureido-phenyl)-quinazolin-2-ylamino]-methyl}-benzenesulfonamide]			< 0.3	< 10
CCOc1nc(NCc2ccc(S(N)(=O)=O)cc2)nc2ccc(-c3ccc(C(N)=O)cc3)cc12 [Example 255, 4-[4-Ethoxy-2-(4-sulfamoyl-benzylamino)-quinazolin-6-yl]-benzamide]			< 0.3	< 10
CCOc1nc(NCc2ccc(S(N)(=O)=O)cc2)nc2ccc(-c3ccc(C(=O)NC4CC4)cc3)cc12 [Example 256, N-Cyclopropyl-4-[4-ethoxy-2-(4-sulfamoyl-benzylamino)-auinazolin-6-yl]-benzamide]	< 0.3	< 10		
CCCc1ncnc2ccc(-c3ccc(F)cc3)cc12 [Example 259, 6-(4-Fluoro-phenyl)-4-propyl-quinazoline]			1 to 10	> 20
(R)-4-[2-Amino-4-(tetrahydro-furan-3-yloxy)-quinazolin-6-yl]-N-[2-(1-methyl-pyrrolidin-2-yl)-ethyl]-benzamide [Example 221]	0.3 to 1	10 to 20		
